Results taken from the NIST ThermoML archive (doi:10.1016/j.jct.2012.06.023).
± gives the expanded uncertainty stated by the source.

Experiment: xn = mol fraction of the nth substance listed
Details: for surface tension liquid-gas: Wilhelmy plate; for viscosity: 101 kPa, Liquid, Concentric cylinders viscometry

CCCCCCCO [heptan-1-ol] + CN(C)C=O
Details	surface tension liquid-gas, 298.15 K [mN/m]	surface tension liquid-gas, 303.15 K [mN/m]	surface tension liquid-gas, 308.15 K [mN/m]	surface tension liquid-gas, 313.15 K [mN/m]	viscosity, 298.15 K [mPa·s]	viscosity, 303.15 K [mPa·s]	viscosity, 308.15 K [mPa·s]	viscosity, 313.15 K [mPa·s]
x2 = 0	26.47 ± 0.13	25.38 ± 0.13	24.33 ± 0.12	23.5 ± 0.12	5.944 ± 0.038	5.069 ± 0.033	4.333 ± 0.028	3.726 ± 0.025
x2 = 0.1852	27.06 ± 0.12	25.94 ± 0.11	24.87 ± 0.11	24.01 ± 0.1	3.662 ± 0.023	3.061 ± 0.02	2.599 ± 0.017	2.21 ± 0.015
x2 = 0.3466	27.51 ± 0.1	26.35 ± 0.1	25.25 ± 0.09	24.34 ± 0.09	2.48 ± 0.016	2.044 ± 0.014	1.734 ± 0.013	1.465 ± 0.012
x2 = 0.4928	27.98 ± 0.09	26.77 ± 0.08	25.64 ± 0.08	24.69 ± 0.08	1.77 ± 0.013	1.452 ± 0.011	1.238 ± 0.011	1.048 ± 0.01
x2 = 0.6004	28.74 ± 0.08	27.52 ± 0.07	26.38 ± 0.07	25.41 ± 0.07	1.432 ± 0.011	1.183 ± 0.01	1.021 ± 0.0099	0.8722 ± 0.0096
x2 = 0.6878	29.48 ± 0.07	28.25 ± 0.06	27.1 ± 0.06	26.11 ± 0.06	1.224 ± 0.01	1.026 ± 0.0099	0.898 ± 0.0095	0.7775 ± 0.0093
x2 = 0.7679	30.53 ± 0.06	29.32 ± 0.06	28.17 ± 0.06	27.17 ± 0.05	1.079 ± 0.0099	0.9233 ± 0.0095	0.8218 ± 0.0093	0.7462 ± 0.0091
x2 = 0.8369	31.64 ± 0.05	30.44 ± 0.05	29.3 ± 0.05	28.3 ± 0.05	0.9874 ± 0.0096	0.8807 ± 0.0094	0.7949 ± 0.0092	0.7165 ± 0.009
x2 = 0.8984	32.86 ± 0.05	31.7 ± 0.05	30.57 ± 0.04	29.57 ± 0.04	0.918 ± 0.0094	0.8403 ± 0.0093	0.7775 ± 0.0091	0.7082 ± 0.009
x2 = 0.951	34.06 ± 0.04	32.93 ± 0.04	31.82 ± 0.04	30.82 ± 0.04	0.8665 ± 0.0093	0.8038 ± 0.0092	0.7541 ± 0.0091	0.6934 ± 0.009
